Test systems include OVCAR-8 ovarian; TK-10 renal; A498 renal; SK-MEL-28 melanoma; NCI-H226 lung; SK-MEL-2 melanoma; 786-0 renal.
Holding throughout (test): inhibition of tumour cell growth, NCI panel, 48 h

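The compound was tested at five concentrations on cells cultured in 96-well plates, with a 48-hour exposure period. GI50 marks 50% less growth. TGI denotes the concentration required for complete inhibition of growth.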

Regarding `CCN(CC)CCOc1ccc(C(=C2CCCCC2)c2ccc(OCCN(CC)CC)cc2)cc1`, the TGI with OVCAR-8 ovarian came out at 3.13 µM; in the assay with TK-10 renal it was 2.89 µM; in the assay with A498 renal it was 3.8 µM; with SK-MEL-28 melanoma it was 2.64 µM; in the assay with NCI-H226 lung it was 4.26 µM; with SK-MEL-2 melanoma it was 3.52 µM. The compound further registered a TGI in the assay with 786-0 renal of 2.69 µM.

Consider `ClC[Si]12OCCN(CCO1)CCO2`, for which the TGI in the assay on OVCAR-8 ovarian, in the assay with TK-10 renal, with A498 renal, in the assay with SK-MEL-28 melanoma, in the assay on NCI-H226 lung and in the assay on SK-MEL-2 melanoma was above 100 µM each time. The compound also showed a TGI with 786-0 renal above 100 µM.

With `COc1ccc(C(=O)O)c(Cc2ccc3ccccc3c2)c1`, the TGI in the assay with OVCAR-8 ovarian, in the assay on TK-10 renal, with A498 renal, in the assay on SK-MEL-28 melanoma, in the assay with NCI-H226 lung and in the assay with SK-MEL-2 melanoma was above 100 µM throughout. Also, the TGI in the assay on 786-0 renal is above 100 µM.

With `Cc1cccc(NC(=O)CC#N)c1Cl`, the TGI with TK-10 renal, in the assay with SK-MEL-28 melanoma, in the assay with NCI-H226 lung, with SK-MEL-2 melanoma and in the assay on 786-0 renal was above 100 µM each time.

Turning to `COC(=O)NN1C(C)=C(C(=O)OC)C2(CCOC2=O)C1(C)O` (stereo not drawn), the TGI in the assay on OVCAR-8 ovarian, with TK-10 renal, with A498 renal, in the assay with SK-MEL-28 melanoma, in the assay with NCI-H226 lung and with SK-MEL-2 melanoma was above 100 µM throughout. Further, in the assay on 786-0 renal, the TGI was above 100 µM.

With `CC1=C(c2cc(C(=O)Nc3nccs3)nc(NC#N)n2)Sc2ccccc2N1`, the TGI in the assay on OVCAR-8 ovarian, in the assay with TK-10 renal, in the assay with A498 renal, with SK-MEL-28 melanoma, in the assay on NCI-H226 lung and in the assay on SK-MEL-2 melanoma was above 100 µM each time. The same compound came in with a TGI in the assay on 786-0 renal above 100 µM.

With `c1ccc(C2N3CCCCC3[C@@H]3c4[nH]c5ccccc5c4CCN23)cc1` (stereo partly drawn), the TGI with OVCAR-8 ovarian was above 100 µM; in the assay on TK-10 renal it was above 100 µM; in the assay on A498 renal, 63.6 µM; with SK-MEL-28 melanoma, 70.2 µM; in the assay on SK-MEL-2 melanoma, above 100 µM; in the assay on 786-0 renal, above 100 µM.

Consider `CC1(C)OC(=O)C(=C2CC(c3ccccc3)c3ccccc32)C(=O)O1` (stereo not drawn), for which the TGI in the assay on OVCAR-8 ovarian, in the assay on TK-10 renal, with A498 renal, with SK-MEL-28 melanoma, in the assay with NCI-H226 lung and with 786-0 renal was above 100 µM each time.

Turning to `O=C([O-])c1ccccc1Nc1ccccc1[O-].[Ni+3].[OH3+].[OH3+].[OH3+]`, the GI50 was above 100 µM in the assay with OVCAR-8 ovarian; above 100 µM in the assay on A498 renal; above 100 µM in the assay with SK-MEL-28 melanoma; 88.4 µM in the assay with NCI-H226 lung; above 100 µM with SK-MEL-2 melanoma; above 100 µM in the assay with 786-0 renal. Further, the TGI with OVCAR-8 ovarian, in the assay with A498 renal, with SK-MEL-28 melanoma, in the assay on NCI-H226 lung, in the assay on SK-MEL-2 melanoma and in the assay on 786-0 renal was above 100 µM each time.

As for `CN(C)/C(N)=N/C(N)=S`, the TGI with OVCAR-8 ovarian, with TK-10 renal, in the assay with A498 renal, with SK-MEL-28 melanoma, in the assay on NCI-H226 lung and in the assay on 786-0 renal was above 100 µM in each case.

Turning to `COc1ccc(/C(C)=N/NC(N)=S)c(OC)c1`, the TGI with OVCAR-8 ovarian, in the assay on TK-10 renal, in the assay with A498 renal, with SK-MEL-28 melanoma, in the assay with NCI-H226 lung and with SK-MEL-2 melanoma was above 100 µM throughout. Further, the TGI in the assay on 786-0 renal was above 100 µM.

For the compound `CCC/C(=N\NC(=O)c1cc2ccccc2cc1O)C(CC)C(=O)CCC(=O)N(Cc1ccccc1)Cc1ccccc1` (stereo not drawn), the TGI with OVCAR-8 ovarian was above 100 µM; in the assay on TK-10 renal, above 100 µM; in the assay on A498 renal, above 100 µM; in the assay on SK-MEL-28 melanoma, above 100 µM; in the assay with NCI-H226 lung, above 100 µM; in the assay on SK-MEL-2 melanoma it was 77.8 µM. Besides, the TGI with 786-0 renal is above 100 µM.

In the case of `BrC12c3ccccc3Sc3ccccc3C1(Br)c1ccccc12` (stereo not drawn), the TGI in the assay on OVCAR-8 ovarian is above 100 µM; with TK-10 renal, 99.6 µM; in the assay on A498 renal, 70.7 µM; in the assay on NCI-H226 lung, 38.7 µM; with SK-MEL-2 melanoma, 34.5 µM; in the assay with 786-0 renal it was above 100 µM.

With `COc1ccc(C#CCC(OC2OC(CO)C(O)C(O)C2O)C(O)c2ccc(OC)c(OC)c2)cc1OC` (stereo not drawn), the TGI with OVCAR-8 ovarian, in the assay on A498 renal, with SK-MEL-28 melanoma, in the assay on NCI-H226 lung, in the assay with SK-MEL-2 melanoma and with 786-0 renal was above 100 µM in each case.

On to `CC(=O)OCC1OC(Sc2ccccn2)C=CC1OC(C)=O` (stereo not drawn), for which the TGI in the assay on OVCAR-8 ovarian, in the assay with TK-10 renal, in the assay on A498 renal, in the assay with SK-MEL-28 melanoma, in the assay on NCI-H226 lung and with 786-0 renal was above 100 µM throughout.

Take `CC(C)CC(=O)NS(=O)(=O)c1ccccc1`: the TGI in the assay on OVCAR-8 ovarian, with TK-10 renal, in the assay on A498 renal, in the assay on SK-MEL-28 melanoma, in the assay on NCI-H226 lung and in the assay on SK-MEL-2 melanoma was above 100 µM throughout. The TGI in the assay with 786-0 renal was above 100 µM.

Turning to `CCSc1nc2n(c(=S)n1)CCN2C`, the TGI with OVCAR-8 ovarian came out at 64.7 µM; with A498 renal, 47.5 µM; with SK-MEL-28 melanoma, 41.3 µM; in the assay with NCI-H226 lung, 42.8 µM; in the assay on SK-MEL-2 melanoma, 41.7 µM; in the assay on 786-0 renal, 52 µM.

For `O=c1/c(=C/c2ccc3c(c2)OCO3)sc2nnc(-c3ccco3)n12`, the TGI in the assay with OVCAR-8 ovarian, in the assay with TK-10 renal, in the assay with A498 renal, with SK-MEL-28 melanoma, in the assay with NCI-H226 lung and with SK-MEL-2 melanoma was above 100 µM each time. In the assay with 786-0 renal, the TGI was above 100 µM.

Regarding `CN(C)/C=N/c1nc2ncn(CCOC(=O)c3ccccc3)c2c(=O)[nH]1`, the TGI in the assay with OVCAR-8 ovarian, with TK-10 renal, in the assay with A498 renal, in the assay on SK-MEL-28 melanoma, in the assay on NCI-H226 lung and in the assay with SK-MEL-2 melanoma was above 100 µM each time. For the same compound, the TGI in the assay with 786-0 renal is above 100 µM.

`O=C(c1ccc2c3c(ccc(C(=O)C(F)(F)F)c13)CC2)C(F)(F)F`: the TGI in the assay on OVCAR-8 ovarian, in the assay with TK-10 renal, with A498 renal, in the assay with SK-MEL-28 melanoma, with NCI-H226 lung and with SK-MEL-2 melanoma was above 100 µM throughout. The same compound yielded a TGI in the assay on 786-0 renal above 100 µM.

In the case of `Oc1cc2c(cc1O)-c1[nH]ncc1CC2`, the TGI with OVCAR-8 ovarian is above 100 µM; in the assay on TK-10 renal, above 100 µM; with A498 renal, 95.8 µM; in the assay on SK-MEL-28 melanoma it was above 100 µM; with NCI-H226 lung it was 69 µM; in the assay with SK-MEL-2 melanoma, above 100 µM. Also, in the assay with 786-0 renal, the TGI was above 100 µM.

Consider `CCC(/C(=N\Nc1c(Cl)cc(Cl)cc1Cl)c1ccccc1)n1ccnc1C` (stereo not drawn), for which the TGI is 37.2 µM in the assay with OVCAR-8 ovarian; 28.2 µM in the assay with TK-10 renal; 29.2 µM with A498 renal; 29.7 µM in the assay on SK-MEL-28 melanoma; 35 µM in the assay with NCI-H226 lung; 28.1 µM with SK-MEL-2 melanoma. The same compound registered a TGI in the assay on 786-0 renal of 25.6 µM.

On to `COC(=O)C(Cc1nc2ccccc2[nH]c1=O)C(=O)C(=O)Nc1ccc(OC)cc1[N+](=O)[O-]` (stereo not drawn), for which the TGI in the assay with OVCAR-8 ovarian, in the assay on TK-10 renal, with SK-MEL-28 melanoma, in the assay on NCI-H226 lung, with SK-MEL-2 melanoma and in the assay with 786-0 renal was above 100 µM throughout.

On to `O=C(O)C1OC(Oc2cc(O)c3c(=O)cc(-c4ccc(O)cc4)oc3c2)C(O)C(O)C1O` (stereo not drawn), for which the TGI in the assay with OVCAR-8 ovarian, in the assay with TK-10 renal, in the assay on SK-MEL-28 melanoma, in the assay on NCI-H226 lung, in the assay with SK-MEL-2 melanoma and in the assay with 786-0 renal was above 100 µM in each case.

In the case of `CC1=C(C(=O)Nc2ccccc2C)C(c2ccc(C3C(C(=O)Nc4ccccc4C)=CNC=C3C(=O)Nc3ccccc3C)cc2)C(C(=O)Nc2ccccc2C)=C(C)N1`, the TGI with OVCAR-8 ovarian is above 74.8 µM; in the assay with TK-10 renal, above 100 µM; with A498 renal it was 41.7 µM; in the assay with SK-MEL-28 melanoma it was 36.3 µM; in the assay with NCI-H226 lung, 33.5 µM; in the assay on SK-MEL-2 melanoma, 31.6 µM. In the assay with 786-0 renal, this compound came in with a TGI of 29.3 µM.

For `COc1cc(-c2cc(CCC(=O)Nc3ccccc3[N+](=O)[O-])n(-c3ccc([N+](=O)[O-])cc3[N+](=O)[O-])n2)ccc1O`, the GI50 in the assay with OVCAR-8 ovarian, with TK-10 renal, with A498 renal, in the assay with SK-MEL-28 melanoma, in the assay with NCI-H226 lung and with SK-MEL-2 melanoma was above 100 µM in each case. Besides, in the assay on 786-0 renal, the GI50 is above 100 µM. Further, the TGI in the assay on OVCAR-8 ovarian, with TK-10 renal, in the assay on A498 renal, with SK-MEL-28 melanoma, in the assay with NCI-H226 lung and with SK-MEL-2 melanoma was above 100 µM throughout. The TGI with 786-0 renal was above 100 µM.

(Values after PubChem BioAssay (NCI).)
